Measured values: PMC8763382, “2-Sulfonylpyrimidines as Privileged Warheads for the Development of S. aureus Sortase A Inhibitors” (Frontiers in Molecular Biosciences, 2022)
“And” between values parts separate entries of the source, which are not always exact repeats. Equal entries are not always repeated.

Legend:
[1] = molecular target: T1, cathepsin L (hCatL) (Homo sapiens, UniProt P07711); test: protease selectivity panel, fluorometric assay cathepsin L; format: biochemical; details: 100 µM inhibitor; read-out: CatL inhibition relative to the DMSO control
T1 construct: purchased Calbiochem, Merck Millipore
T1 sequence (P07711 114-333): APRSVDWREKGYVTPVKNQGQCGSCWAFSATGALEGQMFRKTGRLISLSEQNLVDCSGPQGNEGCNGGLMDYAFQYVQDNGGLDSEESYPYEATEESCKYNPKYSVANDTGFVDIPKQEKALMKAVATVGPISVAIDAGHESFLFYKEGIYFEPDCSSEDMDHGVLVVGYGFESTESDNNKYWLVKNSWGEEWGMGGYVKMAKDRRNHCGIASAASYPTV
Experimental: (§1) To investigate how these sulfonylpyrimidines affect the activity of other cysteine and serine proteases, a selectivity panel was constructed from a matrix of 6 diverse sulfonylpyrimidines and 6 different proteases. The compounds were assayed at a final compound concentration of 100 µM for the cysteine proteases human cathepsin B (hCatB), cathepsin L (hCatL), and T. brucei rhodesain (Rd). Furthermore, the serine proteases NS2B-NS3 from Zika virus (ZIKV), the homologous protease from Dengue virus (DENV), and the human protease urokinase plasminogen activator (uPA) were tested for their susceptibility.
(§2) Fluorometric assays of the ZIKV/DENV NS2B/NS3 protease were performed as described previously ([Maus et al., 2021]). The assay was carried out in triplicates at 25°C in assay buffer (50 mM Tris, pH 9.0, 20% glycerol (v/v), and 1 mM CHAPS). 100 µM Boc-Gly-Arg-Arg-AMC (Bachem, Bubendorf, Switzerland) was used as a substrate. Fluorometric assays for cathepsin B, cathepsin L, and rhodesain (Calbiochem, Merck Millipore, Burlington, Massachusetts) were performed as described previously ([Klein et al., 2020a]). Cbz-Phe-Arg-AMC (Bachem, Bubendorf, Switzerland) was used as substrate (100 μM for cathepsin B, 6.5 μM for cathepsin L, and 10 µM for rhodesain). Fluorometric assays for urokinase plasminogen activator were performed as described previously ([Angelini et al., 2012]). 240 µM Cbz-Gly-Arg-Arg-AMC (Bachem, Bubendorf, Switzerland) was used as a substrate.

[2] = molecular target: T2, T. brucei rhodesain (Rd) (Trypanosoma brucei rhodesiense, UniProt Q95PM0); test: protease selectivity panel, fluorometric assay rhodesain; format: biochemical; details: 100 µM inhibitor; n. i. = no inhibition at 100 µM; read-out: Rd inhibition relative to the DMSO control
T2 construct: purchased Calbiochem, Merck Millipore
T2 sequence (Q95PM0 entry or part of it): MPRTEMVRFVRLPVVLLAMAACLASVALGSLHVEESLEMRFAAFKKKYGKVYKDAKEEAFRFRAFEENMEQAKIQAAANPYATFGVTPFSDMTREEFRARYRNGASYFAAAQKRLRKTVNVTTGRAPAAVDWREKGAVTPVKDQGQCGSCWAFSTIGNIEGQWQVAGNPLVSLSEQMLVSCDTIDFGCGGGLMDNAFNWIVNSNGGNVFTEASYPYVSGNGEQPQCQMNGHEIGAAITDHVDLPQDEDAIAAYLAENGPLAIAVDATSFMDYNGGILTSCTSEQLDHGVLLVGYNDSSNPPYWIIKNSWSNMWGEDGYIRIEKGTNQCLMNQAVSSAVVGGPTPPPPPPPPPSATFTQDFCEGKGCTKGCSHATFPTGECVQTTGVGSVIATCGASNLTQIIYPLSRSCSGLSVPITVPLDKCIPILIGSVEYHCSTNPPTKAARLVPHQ
Experimental: as §1, §2

[3] = cysteine reactivity assay (competitive fluorescence assay with probe 8); format: physicochemical
Excerpt: In order to study the kinetics of sulfonylpyrimidines reacting with free cysteine in solution, a strategy for a competitive fluorescence-based assay was adapted from previous works ([Epps and Taylor, 2001]; [Sameshima et al., 2017]). […] The reaction of probe 8 with cysteine liberates 4-methylumbelliferone as a fluorometrically detectable product (Figure 7A), and thus, the fluorescence increase can be described by the second-order rate constant k probe (Equation 1).
Upon the addition of competitive and irreversible cysteine modifiers such as sulfonylpyrimidines, the fluorescence increase of the probe reaction was hyperbolically attenuated (Figure 7B). According to the conceptual deduction described previously ([Epps and Taylor, 2001]; [Sameshima et al., 2017]), the experimental fluorescence curves can be analyzed by nonlinear regression as first-order reaction progress curves (Equation 2). The parameter k obs describes the curvature corresponding to the sum of the competing kinetics (Equation 3). Under the assumptions that 1) the competitive reaction between sulfonylpyrimidines vs. probe with cysteine is started by simultaneous addition, and 2) sulfonylpyrimidines are added at a much higher concentration than cysteine (5 µM) and the probe (5 µM), the k obs values depend substantially on the k chem value. The compound-specific second-order inactivation parameter k chem can be determined by linear regression from the k obs values of the dilution series (Equation 4). d[FL]/dt=kprobe[Cys][probe] (1) FL=[Cys]total⋅kprobe [probe]/kprobe [probe] + kchem [sulfonylpyrimidine](1−e^−kobs⋅t) (2) kobs=kchem [sulfonylpyrimidine]+kprobe [probe] (3) kchem=kobs/[sulfonylpyrimidine] (4)
Kinetic characterization of the reaction between sulfonylpyrimidines and cysteine was performed in degassed phosphate buffer (1×PBS, pH 7.5) or individual cases in bicarbonate buffer (20 mM NaHCO3, 100 mM NaCl, pH 7.5). Three technical replicates were carried out for each sulfonylpyrimidine in black flat-bottom 96-well plates. For this purpose, 50 µL buffered solution (including 5% (v/v) DMSO) of the respective sulfonylpyrimidine derivative (final: 250–3 µM) and the cysteine reactive probe 8 (final: 5 µM) were premixed. Reactions were initiated by the addition of 50 µL cysteine (final: 5 µM), dissolved in the respective buffer, and monitored for 30 min at 30°C in an Infinite M200 Pro plate reader with λex 380 nm/λem 460 nm. To calculate k obs and k chem values, fluorescence curves were fitted using the same non-linear regression as for in vitro inhibition of SrtA ([Barthels et al., 2020]).

[4] = molecular target: T3, NS2B-NS3 from Zika virus (ZIKV) (Zika virus, UniProt Q32ZE1); test: protease selectivity panel, fluorometric assay ZIKV NS2B/NS3 protease; format: biochemical; details: 100 µM inhibitor; read-out: ZIKV inhibition relative to the DMSO control
T3 construct: The ZIKV NS2B/NS3 protease is a serine protease and contains two non-catalytic cysteine residues
T3 sequence (Q32ZE1 1499-1676): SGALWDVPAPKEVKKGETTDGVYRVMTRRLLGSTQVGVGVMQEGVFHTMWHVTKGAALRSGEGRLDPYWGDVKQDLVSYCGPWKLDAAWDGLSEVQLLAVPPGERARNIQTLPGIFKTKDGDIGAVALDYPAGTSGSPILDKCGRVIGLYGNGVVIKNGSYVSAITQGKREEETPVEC
T3 sequence (Q32ZE1 1421-1460): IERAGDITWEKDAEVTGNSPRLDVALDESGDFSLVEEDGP
Experimental: as §1, §2

[5] = molecular target: T4, human cathepsin B (hCatB) (Homo sapiens, UniProt P07858); test: protease selectivity panel, fluorometric assay cathepsin B; format: biochemical; details: 100 µM inhibitor; read-out: CatB inhibition relative to the DMSO control
T4 construct: purchased Calbiochem, Merck Millipore
Experimental: as §1, §2

[6] = design: method as in Bauer et al.; details: ref Bauer et al.; cited from earlier work
[7] = molecular target: T5, S. aureus SrtA (Staphylococcus aureus, UniProt Q2FV99); test: fluorometric enzyme assay of SrtA transpeptidation (Abz-LPETG-Dap(Dnp)-OH substrate); format: biochemical
T5 construct: His tag (inferred from IMAC on a HisTrap column); made in house; host or cells: E. coli BL21 Gold (DE3)
T5 sequence (Q2FV99 60-206): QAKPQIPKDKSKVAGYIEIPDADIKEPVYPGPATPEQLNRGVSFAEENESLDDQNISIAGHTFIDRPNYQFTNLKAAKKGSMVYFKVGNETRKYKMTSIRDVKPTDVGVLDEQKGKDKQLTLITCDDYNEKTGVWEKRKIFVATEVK
Experimental: To evaluate the inhibition potency of the parent sulfonylpyrimidine 4, this compound was tested by means of a fluorometric enzyme assay with recombinantly expressed S. aureus SrtA ([Schmohl et al., 2017b]) and Abz-LPETG-Dap (Dnp)-OH as substrate. […] To verify the irreversible mode of inhibition, we determined the maximum inactivation rate k inact, the dissociation constant of the reversible enzyme-inhibitor complex KI, and the second-order rate of inhibition k 2nd. For compound 4, a k inact = 0.00065 s^−1 was found, which is very low compared to other covalent SrtA inhibitors ([Chan et al., 2017]; [Barthels et al., 2020]; [Jaudzems et al., 2020]).
Inhibition assays of S. aureus SrtA transpeptidation reactions were performed as described previously ([Barthels et al., 2020]). Briefly, the recombinantly expressed SrtA (final concentration: 1 µM) was incubated in assay buffer (50 mM Tris, 150 mM NaCl, 5 mM CaCl2, pH 7.50) with 25 µM of the FRET-pair substrate Abz-LPETG-Dap (Dnp)-OH (Genscript, Piscataway, New Jersey) and 0.5 mM tetraglycine (Sigma Aldrich, St. Louis, Missouri). Inhibitors were added from DMSO stocks. Reactions were initiated by addition of SrtA and monitored for 30 min at 30°C in an Infinite M200 Pro plate reader with λex 320 nm/λem 430 nm (Tecan, Männedorf, Switzerland). Three technical replicates were carried out for each inhibitor in black flat-bottom 96-well plates (Greiner bio-one, Kremsmünster, Austria). The enzyme kinetics of irreversible SrtA inactivation were analyzed as described previously ([Barthels et al., 2020]).

[8] = tested on: SrtA; design: method as in Jaudzems et al., 2020; details: after 16 h of incubation with 100 µM inhibitor; ref Jaudzems et al., 2020; cited from earlier work

For `CS(=O)(=O)c1ncc(Cl)c(C(=O)O)n1` [Compound 5c], which inhibition at 100 µM [1] is on record?
Its inhibition at 100 µM is 6.6%.

And the inhibition at 100 µM [2]?
The inhibition at 100 µM was 20%.

And the Cysteine k chem ([3]; bicarbonate buffered solution pH 7.5)?
The Cysteine k chem was 0.365 ± 0.0212 M⁻¹ s⁻¹.

And the Cysteine k chem ([3]; phosphate buffer (1×PBS) pH 7.5)?
Its Cysteine k chem is 1.05 M⁻¹ s⁻¹ and 1.05 ± 0.0335 M⁻¹ s⁻¹.

What about the inhibition at 100 µM [4] of the same compound?
Its inhibition at 100 µM is 7.7%.

And the inhibition at 100 µM [5]?
The inhibition at 100 µM was 5.8%.

And the “k chem vs. glutathione” value [6]?
The value was 82 M^−1min-^1.

And the “SrtA inhibition (in words)” value ([7]; final inhibitor concentration of 300 µM)?
Its value is “no SrtA inhibition”.

What about the inhibition at 100 µM ([7]; read-out: SrtA inhibition relative to the DMSO control) of the same compound?
Its inhibition at 100 µM is 19.6%.

What does the source list for `CS(=O)(=O)c1ncc(Cl)c(C(=O)Nc2ccccc2Cc2ccccc2)n1` [Compound 4]?
SrtA inhibition [8]: 97%; k inact ([7]; maximum inactivation rate, Tris pH 7.50, n. i. = <20% inhibition at 100 µM): 0.00065 s⁻¹ and 0.0006 s⁻¹ and 0.00065 ± 0.00007 s⁻¹; KI (inactivation) ([7]; read-out: KI, dissociation constant of the reversible enzyme-inhibitor complex, Tris pH 7.50, n. i. = <20% inhibition at 100 µM): 47.1 ± 15.7 µM; k 2nd ([7]; second-order rate of inhibition, Tris pH 7.50, n. i. = <20% inhibition at 100 µM): 14.5 M⁻¹ s⁻¹ and 14.5 ± 2.83 M⁻¹ s⁻¹
